Our source for the kinact/Ki values is article PMC4992173, “Divergent synthesis and identification of the cellular targets of deoxyelephantopins” (Nature Communications, 2016).

The assay has as its target human PPARγ. Nature of the assay: Gel-based PPARγ binding kinetics (Kitz and Wilson). Particulars: recombinant PPARγ, 10-60 min preincubation, 24c-Cy3 readout, n=3. How it is done: Briefly, recombinant human PPARγ was pretreated with compounds at 20 μM concentration followed by the probe 24c-Cy3. […] Assuming covalent bond formation with PPARγ, we applied the method of Kitz and Wilson[52] to determine the kinetic values Ki and kinact for deoxyelephantopin and compound 19a (Supplementary Fig. 17). We observed clear time-dependent shift in half-maximal inhibitory concentration (IC50) values characteristic for an irreversible mode of binding.
Supplementary figure 17: Determination of the kinetic values Ki and kinact for 19a and DEP as binders to human PPARγ (n = 3).
Supplementary figure 18: F γ
24c-Cy3 after pretreatment with 10 mM IAA or DMSO. […]
for 30 min. at 37 °C under 5% CO2 atmosphere. Cells were washed one time with PBS and fixed with 4% paraformaldehyde for 20 min. at r.t. Coverslips were washed three times with PBS, one time with water and then mounted on a slide with ProLong Gold antifade mountant with DAPI (Life Technologies). Cells were visualized with an LSM 700 confocal microscope […]
Annexin V and PI staining for cell microscopy. […]
In situ labeling experiments. […] Gels were visualized at 625 nm using a Hitachi FMBIO II Multi-View fluorescence scanner, then […]
visualization were performed as described above. Images were quantified with ImageJ and kinetics values were calculated using GraphPad Prism (V6.03). […]

In the case of `C=C(C)C(=O)O[C@H]1CC2=C[C@H](C/C=C\[C@H]3OC(=O)C(=C)[C@H]13)OC2=O` [19a], the kinact/Ki is reported as 1,241 M^−1 min^−1.
To `C=C(C)C(=O)O[C@H]1CC2=C[C@@H](C/C(C)=C/[C@H]3OC(=O)C(=C)[C@H]13)OC2=O` [deoxyelephantopin] belongs 680 M⁻¹ min⁻¹.
